In US20070010465A1 (priority 2005, published 2007):

What was measured:
P-gp = molecular target: T1, P-gp (Homo sapiens, UniProt P08183); assay: cellular P-gp function, DiOC2 accumulation assay with flow cytometry on circulating NK cells and leukemic blasts; assay type: in vivo, Patients with AML
T1 construct: Pharmacodynamic assessments of cellular P-gp function were conducted using an accumulation assay with DiOC2 and flow cytometry; endogenous in cells; host or cells: circulating NK cells and leukemic blasts from AML patients
T1 sequence (P08183 whole entry): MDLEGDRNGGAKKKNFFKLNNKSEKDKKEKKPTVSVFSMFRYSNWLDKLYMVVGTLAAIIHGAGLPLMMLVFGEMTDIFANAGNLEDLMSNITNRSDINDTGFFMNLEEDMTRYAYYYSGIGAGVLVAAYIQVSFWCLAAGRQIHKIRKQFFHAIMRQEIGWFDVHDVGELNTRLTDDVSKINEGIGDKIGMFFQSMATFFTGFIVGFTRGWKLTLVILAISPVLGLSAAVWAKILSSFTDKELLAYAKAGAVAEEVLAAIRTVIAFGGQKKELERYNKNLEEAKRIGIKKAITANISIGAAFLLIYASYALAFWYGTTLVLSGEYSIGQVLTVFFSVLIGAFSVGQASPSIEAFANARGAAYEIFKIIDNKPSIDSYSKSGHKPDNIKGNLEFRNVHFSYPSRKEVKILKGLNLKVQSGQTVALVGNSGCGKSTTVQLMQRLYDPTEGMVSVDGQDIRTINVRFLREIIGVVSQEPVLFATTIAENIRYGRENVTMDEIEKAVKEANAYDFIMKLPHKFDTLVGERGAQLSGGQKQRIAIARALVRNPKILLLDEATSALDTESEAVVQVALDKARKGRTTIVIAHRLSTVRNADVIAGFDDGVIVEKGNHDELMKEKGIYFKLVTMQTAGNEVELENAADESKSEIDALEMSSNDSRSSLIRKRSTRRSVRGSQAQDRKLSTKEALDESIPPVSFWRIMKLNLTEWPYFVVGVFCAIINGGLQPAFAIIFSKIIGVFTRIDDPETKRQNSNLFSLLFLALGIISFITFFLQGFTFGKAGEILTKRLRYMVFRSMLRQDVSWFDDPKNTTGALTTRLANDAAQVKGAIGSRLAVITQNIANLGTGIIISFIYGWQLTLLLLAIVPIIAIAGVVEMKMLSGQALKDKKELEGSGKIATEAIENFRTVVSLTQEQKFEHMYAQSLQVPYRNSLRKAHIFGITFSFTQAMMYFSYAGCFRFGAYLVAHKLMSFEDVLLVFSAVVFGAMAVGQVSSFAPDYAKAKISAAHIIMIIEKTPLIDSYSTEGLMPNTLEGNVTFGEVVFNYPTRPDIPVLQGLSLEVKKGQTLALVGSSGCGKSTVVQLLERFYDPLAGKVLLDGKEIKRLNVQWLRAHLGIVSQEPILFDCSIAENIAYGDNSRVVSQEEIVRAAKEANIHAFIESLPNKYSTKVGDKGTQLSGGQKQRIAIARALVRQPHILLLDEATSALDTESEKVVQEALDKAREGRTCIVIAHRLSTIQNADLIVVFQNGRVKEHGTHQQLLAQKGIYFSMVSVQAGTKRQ
Procedure: Cytarabine was also administered (100 mg/m^2/day) starting after the first dose of daunorubicin as a continuous intravenous infusion on days 1-7. Blood samples were taken at intervals for pharmacokinetic and pharmacodynamic studies. Pharmacokinetic drug determinations were conducted by HPLC. Pharmacodynamic assessments of cellular P-gp function were conducted using an accumulation assay with DiOC2 and flow cytometry. P-gp function was assessed on circulating natural killer (NK) cells and leukemic blasts. […] Means of 3 patients for each time point are shown.

[1] = several oncolytics, preclinical models; cited from earlier work
[2] = test system: acute myelogenous leukemia; conditions: valspodar arm, enrollment halted; cited from earlier work

Compound | time to potent inhibition of P-gp function after start of zosuquidar infusion (P-gp; 700 mg/day continuous intravenous infusion) [h] | duration of inhibition of P-gp functional activity after zosuquidar infusion was halted (P-gp; after 72 hour infusion) | pharmacokinetic (PK) interactions with oncolytics [1] | early mortality [2]
O[C@@H](COc1cccc2ncccc12)CN1CCN([C@@H]2c3ccccc3[C@@H]3[C@H](c4ccccc42)C3(F)F)CC1 [Zosuquidar] | ≤ 2 | at least 12 hours | minimal | –
C/C=C/C[C@@H](C)C(=O)[C@H]1C(=O)N[C@@H](C(C)C)C(=O)N(C)CC(=O)N(C)[C@@H](CC(C)C)C(=O)N[C@@H](C(C)C)C(=O)N(C)[C@@H](CC(C)C)C(=O)N[C@@H](C)C(=O)N[C@H](C)C(=O)N(C)[C@@H](CC(C)C)C(=O)N(C)[C@@H](CC(C)C)C(=O)N(C)[C@@H](C(C)C)C(=O)N1C [valspodar] | – | – | – | excessive early mortality
